Test results: article PMC10532587, “An Investigation of Structure–Activity Relationships and Cell Death Mechanisms of the Marine Alkaloids Discorhabdins in Merkel Cell Carcinoma Cells” (Marine Drugs, 2023)
Like-named read-outs stand apart in the source and are kept apart here.

What was measured:
[1] = test system: HaCaT; test: Cell survival by CellTiterGlo, control cells; assay type: cell-based, human; details: for IC50: Homo sapiens, HaCaT, control skin cell line, CellTiterGlo, normalized to DMSO, read-out: IC50 (nM) HaCaT; for AUC (arbitrary units) HaCaT: area under the dose-response curve, control cells
[2] = test system: Waga; test: Cell survival by CellTiterGlo, VP-MCC line Waga; assay type: cell-based; details: for IC50: CellTiterGlo, normalized to DMSO; for AUC (arbitrary units) WaGa: area under the dose-response curve
[3] = test system: MKL-1; test: Cell survival by CellTiterGlo, VP-MCC line MKL-1; assay type: cell-based; details: for IC50: MKL-1, CellTiterGlo; for AUC (arbitrary units) MKL-1: area under the dose-response curve
[4] = test system: UISO; test: Cell survival by CellTiterGlo, VN-MCC line UISO; assay type: cell-based; details: for IC50: CellTiterGlo, normalized to DMSO; for AUC (arbitrary units) UISO: area under the dose-response curve
[5] = test system: MCC13; test: Cell survival by CellTiterGlo, VN-MCC line MCC13; assay type: cell-based; details: for IC50: CellTiterGlo, normalized to DMSO; for AUC (arbitrary units) MCC13: area under the dose-response curve
[6] = test system: MCC26; test: Cell survival by CellTiterGlo, VN-MCC line MCC26; assay type: cell-based; details: for IC50: CellTiterGlo, normalized to DMSO; for AUC (arbitrary units) MCC26: area under the dose-response curve
[7] = test system: control (HaCaT) and Merkel cell carcinoma cell lines; test: Cell survival by CellTiterGlo, all seven cell lines; assay type: cell-based; details: for IC50: Homo sapiens, HaCaT
Description: Three methods were employed for assessment of MCC and control cell survival/viability after discorhabdin treatment, two metabolic assays and a cell permeability assay. For all three methods, cells were plated in 384-well plates at 2500 cells/well and treated with various concentrations of discorhabdins for various time periods. CellTiterGlo^TM (Promega, Madison, WI, USA) measures cellular ATP content and was used to estimate potency of discorhabdins in cell viability assays as previously described. Continuous monitoring of metabolic activity was accomplished using a cellular reducing potential luminescence assay, the RealTime-Glo^TM MT Cell Viability Assay (Promega, Madison, WI, USA) according to manufacturer’s instructions. Loss of cell plasma membrane integrity was assessed using a cell-impermeant molecule that becomes fluorescent upon binding DNA [82] in parallel with apoptosis detection per manufacturer’s instructions (RealTimeGlo^TM Annexin V Apoptosis and Necrosis Assay-Promega). Two additional assays of apoptotic cell death were also used. Caspase activation in response to treatment of MCC cells by discorhabdins or bortezomib (as a positive control) was measured using the CaspaseGlo® 3/7 Assay (Promega, Madison, WI, USA) according to the manufacturer’s instructions at multiple time points. Inhibition of apoptotic cell death was investigated using pre-treatment of cells with for 1 h with the pan-caspase inhibitor Z-VAD-FMK (Enzo Life Sciences, Farmingdale, NY, USA) followed by treatment with discorhabdins or bortezomib and estimation of cell viability as outlined above.
In order to compare responses among all of the discorhabdins and cell lines (98 combinations), dose–response curves were generated using identical discorhabdin dilution series. GraphPad Prism 8 (San Diego, CA, USA) software was utilized to graph dose–response data and to calculate IC50 values and area under the dose–response curves (AUC) along with 95% confidence interval estimates using four-parameter logistic nonlinear regression analysis. For further analysis and comparisons, AUC for each cell line/discorhabdin pair was visualized in a heatmap generated in R version 1.3.1073 (R Core Team (2013). R: A language and environment for statistical computing. R Foundation for Statistical Computing, Vienna, Austria, http://www.R-project.org/ (accessed on 12 January 2023).
Figure S39: Activity of discorhabdins against M CC cell lines.
The indicated discorh abd ins were ass essed for th eir ability to affect surviv al of control (H aCaT) and Merkel cell carcino ma cell lines (VN-MCC: MCC13, MCC26, UISO and VP -MCC: MKL-1, MKL-2, Wag a). Cells were plat ed at 2500 cells/well and compounds the next day. Cell survival was estimated by CellTiterGlo (normalized to untreated (DMSO) cells on the same plate). Structures w ere o btained from the supplier and/or the PubChem database or as described in the text. Number in bold in ( ) refers to structures in Figure 1 in the text. Curves were plotted and IC50 values and 95% confidence interval calculated by GraphPad software. […]

[8] = test system: MKL-2; test: Cell survival by CellTiterGlo, VP-MCC line MKL-2; assay type: cell-based; details: for IC50: CellTiterGlo, normalized to DMSO; for AUC (arbitrary units) MKL-2: area under the dose-response curve
[9] = VP-MCC, normalized to DMSO, read-out: IC50 (nM) MKL-1
[10] = CellTiterGlo, 10 µM highest concentration tested, read-out: IC50, all cell lines
[11] = essentially inactive compounds, read-out: average IC50 against all the cell lines

Compound | IC50 [1] [nM] | AUC (arbitrary units) HaCaT [1] [arbitrary units] | IC50 [2] [nM] | AUC (arbitrary units) WaGa [2] [arbitrary units] | IC50 [3, 9] [nM] | AUC (arbitrary units) MKL-1 ([3]; VP-MCC) [arbitrary units] | IC50 [4] [nM] | AUC (arbitrary units) UISO [4] [arbitrary units] | IC50 [5] [nM] | AUC (arbitrary units) MCC13 [5] [arbitrary units] | IC50 [6] [nM] | AUC (arbitrary units) MCC26 [6] [arbitrary units] | IC50 [7, 10] [µM] | IC50 [7, 11] [µM] | IC50 ([3]; printed in brackets beside the all-cell-lines bound, read-out: IC50 MKL-1) [nM] | IC50 [8] [nM] | AUC (arbitrary units) MKL-2 [8] [arbitrary units] | activity on cell viability, in words ([7]; MCC and control cell lines)
Cn1cc2c3c1C(=O)C1=C(C3=NCC2)[C@]2(C=CC(=O)C(Br)=C2)CCN1 [Compound 23, (+)-(6S)-N-13-methyldiscorhabdin E] | 2980 | 319.6 | 546 | 65.1 | 186 | 23.33 | 781 | 90.78 | 1290 | 155.7 | 2880 | 306.3 |  |  |  |  |  | 
O=C1C=CC2(C=C1)CCNC1=C2C2=NCCc3c[nH]c(c32)C1=O [Compound 21, didebromodiscorhabdin C] |  | 952.2 |  | 973.8 |  | 682.4 |  | 851.9 |  | 883 |  | 866.1 | > 10 | > 5 | > 5000 |  |  | 
O=C(O)CNC1C2C(=O)C=C3SC4CC31C1=C(N4)C(=O)c3[nH]cc4c3C1=[N+]2CC4 (single isomer, unassigned; (-)) [Compound 13] | > 10000 | 909 | 1560 | 200.7 | 682 | 83.43 | 3420 | 436.7 | 3820 | 478.7 | > 6000 | 719.3 |  |  |  | 2910 | 391.1 | 
O=C1C2=C(C3=NCCc4c[nH]c1c43)c1c(cc(Br)c(O)c1Br)CCN2 [Compound 24, discorhabdin C phenol] | > 10000 | 884.9 | 5460 | 611.2 | 2330 | 279.7 | 4210 | 493.2 | 4640 | 528.6 | 6920 | 708.7 |  |  |  |  |  | 
Cn1cnc(SC2=CC(=O)C=C3S[C@H]4C[C@@]23C2=C(N4)C(=O)c3[nH]cc4c3C2=NCC4)c1C[C@H](N)C(=O)O (relative stereo) [Compound 5, (+)-(6S,8S,7′S*) discorhabdin K] | > 10000 | 944.5 | 6150 | 660.5 | 3030 | 335 | 8300 | 767.7 | > 10000 | 837.7 | > 10000 | 841.3 |  | > 5 |  |  |  | 
O=C1C(Br)=CC2(C=CNC3=C2C2=NCCc4c[nH]c(c42)C3=O)C=C1Br [Compound 20, 7,8-dehydrodiscorhabdin C] | > 10000 | 940.1 | 7430 | 661 | 3260 | 376.3 | 5570 | 542.4 | 7480 | 694.4 | ~10000 | 815.8 |  | > 5 |  |  |  | 
CSC1=CC(=O)C=C2S[C@H]3C[C@@]12C1=C(N3)C(=O)c2[nH]cc3c2C1=NCC3 [Compound 7, (+)-(6R,8S) thiomethyldiscorhabdin G*/I] | 7960 | 745.5 | 2990 | 321.6 | 1230 | 144.5 | 3270 | 360.8 | 4500 | 495.1 | 7890 | 638.2 |  |  |  |  |  | 
O=C1C2=C(C3=NCCc4c[nH]c1c43)C1(C=C(Br)C(O)C(Br)=C1)CCN2 (stereo not shown) [Compound 16, 3-dihydrodiscorhabdin C] | 4130 | 454.5 | 3200 | 370.5 | 1630 | 195.9 | 3090 | 375.8 | 3470 | 404 | 4700 | 543.3 |  |  |  | 1940 | 277.4 | 
O=C1C=C(S(=O)(=O)O)[C@@]2(C=CNC3=C2C2=NCCc4c[nH]c(c42)C3=O)C=C1Br [Compound 9, (+)-(6S) sulphonyl-7,8-dehydrodiscorhabdin E] |  | 911.5 |  | 949.7 |  | 917.6 |  | 914.8 |  | 882.5 |  | 793.9 | > 10 | > 5 |  |  |  | practically inactive
O=C1C=C2S[C@H]3C[C@]2(C=C1Br)C1=C(N3)C(=O)c2[nH]cc3ccnc1c23 [Compound 3, (+)-(6S,8S) discorhabdin Q] | 5450 | 604.2 | 3290 | 405.1 | 3440 | 389.4 | 3850 | 447.9 | 3500 | 419.1 | 3760 | 432.3 |  |  |  | 2040 | 350.1 | 
O=C1C2=C3C4=[N+](CCc5c[nH]c1c54)[C@H]1C[C@@]34C[C@@H](N2)SC4=CC1=O [Compound 11, (+)-(2S,6R,8S) discorhabdin D] | > 6000 | 715.8 | 1810 | 216.6 | 497 | 60.49 | 3620 | 423.9 | 5000 | 540.6 | 5850 | 653.2 |  |  |  | 865 | 143.2 | 
